Laboratory results reported in ChEMBL document CHEMBL3507680, “University of Dundee, Gates Library screen for HepG2 cell viability”.

Assay: Human HepG2 cell viability assay in 384 well format
Assay type: toxicity, cell-based
Set-up: dose 125 nL, time 70.5 hour; cytotoxicity at 70.5 h: concentration not given beside the values
Details: HepG2 cells, read-out: Inhibition

| Structure (SMILES) | cytotoxicity at 70.5 h |
| --- | --- |
| COc1ccccc1-c1nnc2n1NC(N)=C(C#N)S2 | -28.8% |
| CCCc1nc2c(c(C)c(C)n2Cc2cccnc2)c(N)c1CC | 54.7% |
| O=C(c1nc(Cc2c[nH]c3ccccc23)no1)N1CCCC1 | -3.26% |
| Cc1ccnc(SCC(=O)Nc2csc3nc(=O)c(C)nn23)n1 | 7.67% |
| O=C(O)CNC(=O)Cc1csc(-c2ccccc2F)n1 | 18.6% |
| O=C(CNC(=O)N1CCc2c([nH]c3ccc(Cl)cc23)C1)NCCCO | -18.9% |
| O=C1CCCC2=C1C(c1ccccc1Cl)Nc1nonc1N2 (stereo unspecified) | 0.0122% |
| COCCNC(=O)c1nc(NS(=O)(=O)c2ccccc2)sc1C | -18.8% |
| COc1ccccc1CNc1ccc2nncn2n1 | -11.2% |
| COC(=O)CCNC(=O)c1nc(NS(=O)(=O)c2ccccc2)sc1C | -23% |
| CC(=O)Nc1ccc(OCc2noc(C(=O)N3CCCCCC3)n2)cc1 | -21.4% |
| N#CC1=C(N)Nn2c(nnc2-c2ccccc2Br)S1 | -19% |
| CC(C)NC(=O)CCC(=O)N1CCC(c2noc3cc(F)ccc23)CC1 | -17.2% |
| CN1C(=O)C2(CC(=O)Nc3c2cnn3C(C)(C)C)c2ccccc21 (stereo unspecified) | -18.7% |
| O=C1CCCC2=C1C(c1cc(Cl)ccc1F)Nc1nonc1N2 (stereo unspecified) | 9.69% |
| CCOC(=O)c1nc(COc2ccc(CC(N)=O)cc2)no1 | -10.5% |
| COCCNC(=O)Cc1cnc(-n2cccc2)s1 | -22.5% |
| Cc1occc1-c1nnc2n1NC(N)=C(C#N)S2 | -22.4% |
| N#Cc1nc(COc2ccc3c(c2)OCO3)oc1N1CCCC1 | -26.5% |
| CN1C(=O)C2(CC(=O)Nc3[nH]ncc32)c2ccc(F)cc21 (stereo unspecified) | -15.5% |
| C[C@@H](O)CNC(=O)c1nc(CC(=O)Nc2cccc(C(F)(F)F)c2)no1 | -23.7% |

| Structure (SMILES) | cytotoxicity at 70.5 h |
| --- | --- |
| Cc1occc(=O)c1OCc1noc(C(=O)NC(C)C)n1 | -15.1% |
| Cc1cccc(N2Cc3nc(=O)n(Cc4cccc(F)c4)n3C2=O)c1 | -18% |
| Cc1nc2oc(C(=O)N3CCOCC3)c(N)c2c2c1CCCC2 | -17.3% |
| COc1cc2c(cc1OC)C(=O)C(Sc1nnc(C)o1)C2 (stereo unspecified) | -15.9% |
| COC(=O)CCC(=O)N(Cc1ccc2cc[nH]c2c1)C1CC1 | -17.3% |
| NC(=O)Cc1ccc(OCc2noc(C(=O)N3CCCC3)n2)cc1 | -23.4% |
| O=S1(=O)CCC(S(=O)(=O)c2cccc(S(=O)(=O)N3CCOCC3)c2)C1 (stereo unspecified) | -8.35% |
| Cc1ccc2c(c1)C1(CC(=O)Nc3[nH]ncc31)C(=O)N2C (stereo unspecified) | -21.9% |
| CC(C)NC(=O)Cn1ccc2c(Cl)cccc21 | -19% |
| Cc1occc(=O)c1OCc1noc(C(=O)NCC(C)C)n1 | -16.8% |
| N#Cc1nc(COc2ccc3c(c2)OCO3)oc1N1CCCCCC1 | -21.8% |
| Cc1cc(C)n(Cc2ccc(-c3noc(C(=O)NC[C@@H](C)O)n3)cc2)n1 | -14.8% |
| CC[C@@H](C)[C@H](NC(=O)Cn1ccc2c(Cl)cccc21)C(=O)O | -13.9% |
| CN1C(=O)COc2ccc(C(=O)Cn3cnc4ccsc4c3=O)cc21 | 17.1% |
| CCC(C)NC(=O)c1snnc1-c1ccc(OC)cc1 (stereo unspecified) | 0.408% |
| O=C(Cc1csc(-c2ccccc2F)n1)NCc1cccc(C(=O)O)c1 | -17.7% |
| O=C(Nc1ccccn1)C1(n2cnnn2)CCCCC1 | -21.1% |
| O=C1N(c2cccc(F)c2)Cc2nc(=O)n(Cc3ccc(Cl)cc3)n21 | -12.7% |
| O=C1N(c2cccc(F)c2)Cc2nc(=O)n(Cc3ccccc3Cl)n21 | -18.7% |
| CC(C)CCNC(=O)c1ccc(-n2cnc3ccccc3c2=O)cc1 | -27.3% |
| COc1cccc(-c2nc(C)c(C(=O)NCCC(=O)O)s2)c1 | -15.8% |

| Structure (SMILES) | cytotoxicity at 70.5 h |
| --- | --- |
| CCc1c(C)sc2c1c(N)nc(=O)n2CCN(C)C | 18.9% |
| COc1ccc2cnn(CC(=O)NC3CCCCC3)c(=O)c2c1OC | 1.17% |
| Cc1occc(=O)c1OCC(=O)N1CCN(c2ccccc2)CC1 | -0.838% |
| O=C(Cc1csc(-c2ccccc2Cl)n1)NCc1cccc(C(=O)O)c1 | -18.1% |
| COc1ccc(NC(=O)Cn2c(=O)nc(N)c3cc(C)sc32)cc1 | -13.1% |
| O=C1CC(c2ccccc2)c2c(c(C(=O)O)cn2-c2ccccc2)N1 (stereo unspecified) | -10.7% |
| Cc1n[nH]c2nc(-c3cc(Br)ccc3O)cc(C(=O)O)c12 | 8.54% |
| CN1CCN(C(=O)c2cc3sccc3n2Cc2ccccc2)CC1 | -6.85% |
| COC(=O)c1ccc(C2CC(=O)Nc3c2cnn3C)cc1 (stereo unspecified) | 3.26% |
| Cc1c(OCC(=O)NCc2ccccc2)c(=O)ccn1C | -17.6% |
| NC(=O)c1c(SCCN2CCCCC2)sc2c(O)cc(=O)[nH]c12 | -7.79% |
| Cc1c(C2SCC(=O)Nc3c2cnn3C(C)(C)C)cnn1C (stereo unspecified) | -10.1% |
| COc1ccccc1N1CCN(C(=O)COc2c(C)occc2=O)CC1 | 6.76% |
| Cn1ncc2c1NC(=O)CSC2c1ccc2c(c1)OCO2 (stereo unspecified) | 10.3% |
| Cc1ccc(CN2CC[C@H]3C(=O)N(c4cccnc4)CCO[C@H]3C2)o1 | -5.97% |
| CN1Cc2c(C(=O)N3CCOCC3)ncn2-c2ccccc2S1(=O)=O | -1.47% |
| CN1CCN(C(=O)c2ncn3c2CNS(=O)(=O)c2ccccc2-3)CC1 | 1.85% |
| Cc1nc(-c2cc(C(=O)NCC(C)(C)CO)c3ccccn23)cs1 | 5.35% |
| COCCN1CCC(CNC(=O)C2(c3ccccc3)CCC2)C1 (stereo unspecified) | -3.28% |
| COCCN1CCC(CNC(=O)C2(c3ccc(Br)cc3)CCCC2)C1 (stereo unspecified) | -0.291% |
| Cc1ccc(C2=CCN(C(=O)C3CCN(C)C(=O)C3)CC2)cc1 (stereo unspecified) | -6.32% |

| Structure (SMILES) | cytotoxicity at 70.5 h |
| --- | --- |
| COc1ccc(C2=CCN(C(=O)C3CCCN(C(C)=O)C3)CC2)cc1 (stereo unspecified) | -1.69% |
| CCc1cnc(CN(C(C)=O)C2CCN(CCN3CCCCC3)C2)o1 (stereo unspecified) | -3.61% |
| Cc1ccccc1C1CCCN1Cc1ccc(S(=O)(=O)N(C)C)o1 (stereo unspecified) | -2.87% |
| CN(C)C(=O)CCCS(=O)(=O)Cc1cc(Cl)c2c(c1)OCO2 | -2.84% |
| CC(C)c1nn(C)c(N(C)C)c1CNCCC(=O)NC1CCCCC1 | 37.6% |
| Cc1nn(C)c(N(C)C)c1CNCCC(=O)NC1CCCC1 | 3.14% |
| Cc1nn(C)c(N(C)C)c1CNCCC(=O)NC1CCCCC1 | -0.221% |
| CNS(=O)(=O)c1ccc(C(=O)N2CCCC2c2ccccc2C)o1 (stereo unspecified) | -1.59% |
| COc1c(CNCCC(=O)NC2CCCCC2)c(C(C)C)nn1C | -0.685% |
| CCn1ncc2c1CN(C(=O)c1cc(C)oc1C)CC2COC (stereo unspecified) | -0.428% |
| CCc1ccc(NC(=O)N2Cc3c(CN(C)C)nn(C)c3C2)cc1 | -2.56% |
| Cc1ccc(N2CCC3(CC2)CCN(C2CCOCC2)CC3)nn1 | -2.19% |
| O=C1CC2(CCCCN2CC2CC2)CN1c1ccccc1 (stereo unspecified) | -3.65% |
| O=C(NC1CC1)[C@@H]1CN(Cc2ccc3c(c2)OCO3)C[C@H]2OCC[C@H]21 | -1.06% |
| Cc1cccc(CN2CCc3c(CNC(=O)CC#N)nn(C)c3C2)n1 | -0.367% |
| CCn1ncc2c1C(COCC1CC1)N(Cc1ccccn1)CC2 (stereo unspecified) | -1.07% |
| c1ccc(OCc2n[nH]c3c2CN(CC2CC2)C3)nc1 | -2.5% |
| c1ccc(OCc2n[nH]c3c2CN(Cc2cccs2)C3)nc1 | -0.121% |
